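GI50 marks 50% less growth. The concentration for full growth arrest is given as TGI.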
Columns and labels:
Test in all cases: inhibition of tumour cell growth, NCI panel, 384-well format; in the data active = GI50 below about 0.43 µM; inactive = the rest
SK-OV-3 ovarian = tested on: SK-OV-3 ovarian
MOLT-4 leukemia = tested on: MOLT-4 leukemia
SK-MEL-2 melanoma = tested on: SK-MEL-2 melanoma
786-0 renal = tested on: 786-0 renal
OVCAR-4 ovarian = tested on: OVCAR-4 ovarian
SW-620 colon = tested on: SW-620 colon
MDA-MB-231 breast = tested on: MDA-MB-231 breast
HOP-92 NSCLC = tested on: HOP-92 NSCLC
TK-10 renal = tested on: TK-10 renal
RXF 393 renal = tested on: RXF 393 renal
SK-MEL-5 melanoma = tested on: SK-MEL-5 melanoma
SR leukemia = tested on: SR leukemia
RPMI-8226 leukemia = tested on: RPMI-8226 leukemia
BT-549 breast = tested on: BT-549 breast
ACHN renal = tested on: ACHN renal
UACC-257 melanoma = tested on: UACC-257 melanoma
CCRF-CEM leukemia = tested on: CCRF-CEM leukemia
PC-3 prostate = tested on: PC-3 prostate
SK-MEL-28 melanoma = tested on: SK-MEL-28 melanoma
IGROV1 ovarian = tested on: IGROV1 ovarian
NCI-H23 lung = tested on: NCI-H23 lung
NCI/ADR-RES ovarian = tested on: NCI/ADR-RES ovarian
HT29 colon = tested on: HT29 colon
OVCAR-8 ovarian = tested on: OVCAR-8 ovarian
U251 glioblastoma = tested on: U251 glioblastoma
MDA-MB-468 breast = tested on: MDA-MB-468 breast
MDA-MB-435 melanoma = tested on: MDA-MB-435 melanoma
A498 renal = tested on: A498 renal
OVCAR-5 ovarian = tested on: OVCAR-5 ovarian
HCT-15 colon = tested on: HCT-15 colon
MCF7 breast = tested on: MCF7 breast
NCI-H460 NSCLC = tested on: NCI-H460 NSCLC
OVCAR-3 ovarian = tested on: OVCAR-3 ovarian
NCI-H522 lung = tested on: NCI-H522 lung
M14 melanoma = tested on: M14 melanoma
HCT-116 colon = tested on: HCT-116 colon
SF-295 CNS = tested on: SF-295 CNS
NCI-H226 lung = tested on: NCI-H226 lung
SF-539 CNS = tested on: SF-539 CNS
K-562 leukemia = tested on: K-562 leukemia
A549 NSCLC = tested on: A549 NSCLC
HL-60(TB) leukemia = tested on: HL-60(TB) leukemia
MALME-3M melanoma = tested on: MALME-3M melanoma
HCC-2998 colon = tested on: HCC-2998 colon
CAKI-1 renal = tested on: CAKI-1 renal
SF-268 CNS = tested on: SF-268 CNS
LOX IMVI melanoma = tested on: LOX IMVI melanoma
SN12C renal = tested on: SN12C renal
NCI-H322M lung = tested on: NCI-H322M lung
HOP-62 NSCLC = tested on: HOP-62 NSCLC
UACC-62 melanoma = tested on: UACC-62 melanoma
SNB-19 CNS = tested on: SNB-19 CNS
UO-31 renal = tested on: UO-31 renal
KM12 colon = tested on: KM12 colon
T-47D breast = tested on: T-47D breast
DU-145 prostate = tested on: DU-145 prostate
COLO 205 colon = tested on: COLO 205 colon

NCCCC[C@@H]1NC(=O)[C@H](CC(=O)O)NC(=O)CNC(=O)[C@H](CCCN=C(N)N)NC(=O)[C@@H](N)CSSC[C@@H](C(=O)O)NC(=O)[C@H](CC(=O)O)NC(=O)[C@@H]2CCCN2C(=O)CNC1=O
inactive: GI50 (SK-OV-3 ovarian) > 100 µM | GI50 (MOLT-4 leukemia) > 100 µM | GI50 (SK-MEL-2 melanoma) > 100 µM | GI50 ([…]-0 renal) > 100 µM | GI50 (OVCAR-4 ovarian) > 100 µM | GI50 (SW-620 colon) > 100 µM | GI50 (MDA-MB-231 breast) > 100 µM | GI50 (HOP-92 NSCLC) > 100 µM | GI50 (TK-10 renal) > 100 µM | GI50 (RXF 393 renal) > 100 µM | GI50 (SK-MEL-5 melanoma) > 100 µM | GI50 (SR leukemia) > 100 µM | GI50 (RPMI-8226 leukemia) > 100 µM | GI50 (BT-549 breast) > 100 µM | GI50 (ACHN renal) > 100 µM | GI50 (UACC-257 melanoma) > 100 µM | GI50 (CCRF-CEM leukemia) > 100 µM | GI50 (PC-3 prostate) > 100 µM | GI50 (SK-MEL-28 melanoma) > 100 µM | GI50 (IGROV1 ovarian) > 100 µM | GI50 (NCI-H23 lung) > 100 µM | GI50 (NCI/ADR-RES ovarian) > 100 µM | GI50 (HT29 colon) > 100 µM | GI50 (OVCAR-8 ovarian) > 100 µM | GI50 (U251 glioblastoma) > 100 µM | GI50 (MDA-MB-468 breast) > 100 µM | GI50 (MDA-MB-435 melanoma) > 100 µM | GI50 (A498 renal) > 100 µM | GI50 (OVCAR-5 ovarian) > 100 µM | GI50 (HCT-15 colon) > 100 µM | GI50 (MCF7 breast) > 100 µM | GI50 (NCI-H460 NSCLC) > 100 µM | GI50 (OVCAR-3 ovarian) > 100 µM | GI50 (NCI-H522 lung) > 100 µM | GI50 (M14 melanoma) > 100 µM | GI50 (HCT-116 colon) > 100 µM | GI50 (SF-295 CNS) > 100 µM | GI50 (NCI-H226 lung) > 100 µM | GI50 (SF-539 CNS) > 100 µM | GI50 (K-562 leukemia) > 100 µM | GI50 (A549 NSCLC) > 100 µM | GI50 (HL-60(TB) leukemia) > 100 µM | GI50 (MALME-3M melanoma) 93.7 µM | GI50 (HCC-2998 colon) > 100 µM | GI50 (CAKI-1 renal) > 100 µM | GI50 (SF-268 CNS) > 100 µM | GI50 (LOX IMVI melanoma) > 100 µM | GI50 (SN12C renal) > 100 µM | GI50 (NCI-H322M lung) > 100 µM | GI50 (HOP-62 NSCLC) > 100 µM | GI50 (UACC-62 melanoma) 80 µM | GI50 (SNB-19 CNS) > 100 µM | GI50 (UO-31 renal) > 100 µM | GI50 (KM12 colon) > 100 µM | GI50 (T-47D breast) > 100 µM | GI50 (DU-145 prostate) > 100 µM | GI50 (COLO 205 colon) > 100 µM
> 100 µM: TGI (SK-OV-3 ovarian) | TGI (MOLT-4 leukemia) | TGI (SK-MEL-2 melanoma) | TGI (786-0 renal) | TGI (OVCAR-4 ovarian) | TGI (SW-620 colon) | TGI (MDA-MB-231 breast) | TGI (HOP-92 NSCLC) | TGI (TK-10 renal) | TGI (RXF 393 renal) | TGI (SK-MEL-5 melanoma) | TGI (SR leukemia) | TGI (RPMI-8226 leukemia) | TGI (BT-549 breast) | TGI (ACHN renal) | TGI (UACC-257 melanoma) | TGI (CCRF-CEM leukemia) | TGI (PC-3 prostate) | TGI (SK-MEL-28 melanoma) | TGI (IGROV1 ovarian) | TGI (NCI-H23 lung) | TGI (NCI/ADR-RES ovarian) | TGI (HT29 colon) | TGI (OVCAR-8 ovarian) | TGI (U251 glioblastoma) | TGI (MDA-MB-468 breast) | TGI (MDA-MB-435 melanoma) | TGI (A498 renal) | TGI (OVCAR-5 ovarian) | TGI (HCT-15 colon) | TGI (MCF7 breast) | TGI (NCI-H460 NSCLC) | TGI (OVCAR-3 ovarian) | TGI (NCI-H522 lung) | TGI (M14 melanoma) | TGI (HCT-116 colon) | TGI (SF-295 CNS) | TGI (NCI-H226 lung) | TGI (SF-539 CNS) | TGI (K-562 leukemia) | TGI (A549 NSCLC) | TGI (HL-60(TB) leukemia) | TGI (MALME-3M melanoma) | TGI (HCC-2998 colon) | TGI (CAKI-1 renal) | TGI (SF-268 CNS) | TGI (LOX IMVI melanoma) | TGI (SN12C renal) | TGI (NCI-H322M lung) | TGI (HOP-62 NSCLC) | TGI (UACC-62 melanoma) | TGI (SNB-19 CNS) | TGI (UO-31 renal) | TGI (KM12 colon) | TGI (T-47D breast) | TGI (DU-145 prostate) | TGI (COLO 205 colon)
